Assay results as given in patent US20060063784A1, “Method of using substituted pyrazolo [1,5-a] pyrimidines” (priority 2004, published 2006).
pIC50: −log10 of the molar value.

Test system: 80S14 (p21-deficient) cells
Assay: Cytotoxicity assay using isogenic cell lines: IC50 in 80S14 (p21-deficient) cells, SRB
Format: cell-based, human
Details: 80S14 (p21-deficient) cells, 5 days, SRB; class symbols; read-out: IC50 for 80S14
Procedure: Cytotoxicity Assay Using Isogenic Cell Lines: • 1. 80S14 (p21-deficient) cells were cultured in RPMI 1640 medium (Gibco/Invitrogen Life technologies) supplemented with 10% fetal bovine serum (FBS, Gibco) and 10 μg/ml gentamycin (Gibco). Cells were maintained at 37° C. under 7% CO2 • 2. Cells were plated at 6×10^4/ml (0.2 ml/well; 12,000 cells/well) in 96-well microtiter plates (Falcon or Corning/Costar) and incubated at 37° C. overnight (18-24 hours). • 3. 2-5 μl of the test agent [200 μg/ml stock in 20% DMSO/20 mM HEPES, pH 7.5 (Gibco)] was added to each well to achieve a final concentration of 2-5 μg/ml. Cells were incubated with the test compounds for 5 days at 37° C. • 4. Surviving cells were fixed with 50 μl 50% trichloroacetic acid (Sigma; 10% final concentration) for 1 hour at 4° C. • 5. Plates were rinsed twice with water (0.3 ml per wash using MRD8 robot), and allowed to dry. • 6. Sulforhodamine B (SRB) (Sigma; 0.4% in 1% acetic acid, 50 μl per well; MRD8 robot) was added and plates kept at room temperature for 10 minutes. • 7. Excess dye was removed by washing with 1% acetic acid (3 times, 0.3 ml per wash; MRD8 robot) and allowed to dry. • 8. The dye was solubilized in Tris base (Sigma; 10 mM, 150 μl per well). Plates were kept at room temperature for 30 minutes to allow the dye to diffuse. • 9. Absorbance was measured at 540 nm. • 10. The percentage of cells surviving drug treatment relative to control wells (no drug) was determined. • 11. The difference in % cell survival between the two cell lines was calculated. • 12. Compounds producing a difference score of >50 were considered to be selective for the p21-deficient cells and were evaluated further: Determination of selectivity of compounds for p21−/− cells: • 1. 80S14 cells were cultured as described above. • 2. Cells were seeded in 96-well microtiter plates at 12,000 cells/well (either 0.15 ml/well of 8×10^4 cells/ml suspension, or 0.2 ml/well of 6×10^4 cells/ml suspension). Plates were incubated at 37° C. overnight (18-24 hours). • 3. Serial dilutions of the test agent were added to each well. Dilutions were prepared either in 40% DMSO/20% methanol/20 mM HEPES, pH 7.5 (Gibco) or directly in growth medium. One of two dose ranges were used: 5 pM to 50 μM or 170 pg/ml to 10 μg/ml. Cells were incubated with the test compounds for 5 days at 37° C. • 4. Surviving cells were fixed with 50 μl 50% trichloroacetic acid (Sigma; 10% final concentration) for 1 hour at 4° C. • 5. Plates were rinsed extensively in water, and allowed to dry. • 6. Sulforhodamine B (Sigma; 0.4% in 1% acetic acid, 70 μl per well) was added and plates kept at room temperature for 10 minutes. • 7. Excess dye was removed by washing 5 times with 1% acetic acid and plates were allowed to dry. • 8. The dye was solubilized in Tris base (Sigma; 10 mM, 150 μl per well). Plates were placed on a titer plate shaker (Lab Line Instruments) for 5 minutes to allow the dye to diffuse. • 9. Absorbance was measured at 560 nm.
10. The drug concentration that inhibits cell proliferation by 50% relative to untreated controls (IC50) was determined from cytotoxicity curves.

CCOC(=O)c1cnn2c(-c3cccc(NC(=O)C4CCC4)c3)ccnc12 [Example 240, Ethyl 7-[3-[(cyclobutylcarbonyl)amino]phenyl]-pyrazolo[1,5-a]pyrimidine-3-carboxylic acid] was tested, and the pIC50 was 4.30 to 5.00.

Same assay, conditions: 80S14 p21-deficient cells, 5 days incubation, SRB; read-out: IC50 for 80SI4

First: CCNC(=O)NCC(=O)Nc1cccc(-c2ccnc3c(C(=O)c4cccs4)cnn23)c1 [Example 137, N-2-[(ethylamino)carbonyl]-N-1-{3-[3-(thien-2-ylcarbonyl)pyrazolo[1,5-a]pyrimidin-7-yl]phenyl}glycinamide]
Second: NCC(=O)Nc1cccc(-c2ccnc3c(C(=O)c4cccs4)cnn23)c1 [Example 77, N-1-{3-[3-(thien-2-ylcarbonyl)pyrazolo[1,5-a]pyrimidin-7-yl]phenyl}gylcinamide]
The pIC50 of the first is higher: 5.00 to 6.00 for the first, 4.30 to 5.00 for the second.

Same assay, conditions: Homo sapiens, 80S14, 120 h, read-out: IC50 for 80S14 (uM)

CC(C)CC(=O)Nc1cccc(-c2ccnc3c(C(=O)c4ccoc4)cnn23)c1 [Example 304, N-{3-[3-(3-Furoyl)pyrazolo[1,5-a]pyrimidin-7-yl]phenyl}-3-methylbutanamide] gave an IC50 of 1 to 10 µM.

Same assay, conditions: Homo sapiens, 120 h; 80S14 (p21-deficient) cells, 5 days, SRB; class symbols; read-out: IC50 for 80S14

First: O=C(c1cccs1)c1cnn2c(-c3cccc(NC(=O)C4CCNCC4)c3)ccnc12 [Example 408, N-{3-[3-(Thien-2-ylcarbonyl)pyrazolo[1,5-a]pyrimidin-7-yl]phenyl}piperidine-4-carboxamide]
Second: C=CC(=O)Nc1cccc(-c2ccnc3c(C(=O)c4cccs4)cnn23)c1 [Example 272, N-{3-[3-(2-Thienylcarbonyl)pyrazolo[1,5-a]pyrimidin-7-yl]phenyl}acrylamide]
The pIC50 of the first is lower: 5.00 to 6.00 for the first, over 6.00 for the second.

First: Cc1nn2c(-c3cccc(NC(=O)CC(C)C)c3)ccnc2c1C(=O)c1cccs1 [Example 307, 3-Methyl-N-{3-[2-methyl-3-(2-thienylcarbonyl)pyrazolo[1,5-a]pyrimidin-7-yl]phenyl}butanamide]
Second: CC(C)CNc1cccc(-c2ccnc3c(C(=O)c4cccs4)cnn23)c1 [Example 404, {7-[3-(Isobutylamino)phenyl]pyrazolo[1,5-a]pyrimidin-3-yl}(thien-2-yl)methanone]
The pIC50 of the first is lower: 4.30 to 5.00 for the first, 5.00 to 6.00 for the second. The second is the more potent here.

CCCC(C)CNc1cccc(-c2ccnc3c(C(=O)c4cccs4)cnn23)c1 (stereo not shown) [Example 418, (7-{3-[(2-Methylpentyl)amino]phenyl}pyrazolo[1,5-a]pyrimidin-3-yl)(thien-2-yl)methanone] and CNc1cccc(-c2ccnc3c(C(=O)c4cccs4)cnn23)c1 [Example 266, [7-[3-(Methylamino)phenyl]pyrazolo[1,5-a]pyrimidin-3-yl]-2-thienyl-methanone] fall in the same range of pIC50: 5.00 to 6.00 for the first, 5.00 to 6.00 for the second.

Compared with CCN(C(=O)C1CC1)c1cccc(-c2ccnc3c(C(=O)c4ccco4)cnn23)c1 [Example 257, N-Ethyl-N-[3-[3-(2-furanylcarbonyl)pyrazolo[1,5-a]pyrimidin-7-yl]phenyl}-cyclopropanecarboxamide], O=C(NC1CCCC1)c1cccc(-c2ccnc3c(C(=O)c4cccs4)cnn23)c1 [Example 320, N-Cyclopentyl-3-[3-(2-thienylcarbonyl)pyrazolo[1,5-a]pyrimidin-7-yl]benzamide] is higher in pIC50: 4.30 to 5.00 for the first, over 6.00 for the second.

Same assay, conditions: Homo sapiens, 120 h; 80S14 (p21-deficient) cells, 5 days, SRB; numeric value; read-out: IC50 for 80S14

For CCCCNC(=N)OC(=N)N(CCCC)c1cccc(-c2ccnc3c(C(=O)c4cccs4)cnn23)c1 [Example 292, N,N′-Dibutyl-N-{3-[3-(2-thienylcarbonyl)pyrazolo[1,5-a]pyrimidin-7-yl]phenyl}dicarbonimidic diamide], the pIC50 was 5.35.

Same assay, conditions: Homo sapiens, 120 h; 80S14 p21-deficient cells, 5 days incubation, SRB; read-out: IC50 for 80SI4

First: CCOC(=O)C(=O)Nc1cccc(-c2ccnc3c(C(=O)c4cccs4)cnn23)c1 [Example 41, ethyl oxo({3-[3-(thien-2-ylcarbonyl)pyrazolo[1,5-a]pyrimidin-7-yl]phenyl}amino)acetate]
Second: CCNC(=O)Nc1cccc(-c2ccnc3c(C(=O)c4cccs4)cnn23)c1 [Example 5, N-ethyl-N′-{3-[3-(thien-2-ylcarbonyl)pyrazolo[1,5-a]pyrimidin-7-yl]phenyl}urea]
The pIC50 of the first is lower: 4.30 to 5.00 for the first, over 6.00 for the second. The second is the more potent here.

First: N[C@@H](Cc1ccccc1)C(=O)Nc1cccc(-c2ccnc3c(C(=O)c4cccs4)cnn23)c1 [Example 81, N-{3-[3-(thien-2-ylcarbonyl)pyrazolo[1,5-a]pyrimidin-7-yl]phenyl}-L-phenylalaninamide]
Second: O=C(Nc1cccc(-c2ccnc3c(C(=O)c4cccs4)cnn23)c1)c1cccc2ccccc12 [Example 103, N-{3-[3-(thien-2-ylcarbonyl)pyrazolo[1,5-a]pyrimidin-7-yl]phenyl}-1-naphthamide]
The pIC50 of the first is lower: 4.30 to 5.00 for the first, over 6.00 for the second.

First: CCCOC(=O)NCC(=O)Nc1cccc(-c2ccnc3c(C(=O)c4cccs4)cnn23)c1 [Example 114, propyl 2-oxo-2-({3-[3-(thien-2-ylcarbonyl)pyrazolo[1,5-a]pyrimidin-7-yl]phenyl}amino)ethylcarbamate]
Second: O=C(CNC(=O)OCCCl)Nc1cccc(-c2ccnc3c(C(=O)c4cccs4)cnn23)c1 [Example 120, 2-chloroethyl-2-oxo-2-({3-[3-(thien-2-ylcarbonyl)pyrazolo[1,5-a]pyrimidin-7-yl]phenyl}amino)ethylcarbamate]
The pIC50 of the first is lower: 4.30 to 5.00 for the first, 5.00 to 6.00 for the second.

First: CCCCCCOC(=O)NCC(=O)Nc1cccc(-c2ccnc3c(C(=O)c4cccs4)cnn23)c1 [Example 122, hexyl 2-oxo-2-({3-[3-(thien-2-ylcarbonyl)pyrazolo[1,5-a]pyrimidin-7-yl]phenyl}amino)ethylcarbamate]
Second: CCCCCCCCCCC(=O)Nc1cccc(-c2ccnc3c(C(=O)c4cccs4)cnn23)c1 [Example 142, N-{3-[3-(thien-2-ylcarbonyl)pyrazolo[1,5-a]pyrimidin-7-yl]phenyl}undecanamide]
The pIC50 of the first is higher: 5.00 to 6.00 for the first, 4.30 to 5.00 for the second.

O=C(c1cccs1)c1cnn2c(-c3cccc(NS(=O)(=O)c4ccc(Br)cc4)c3)ccnc12 [Example 35, 4-bromo-N-{3-[3-(thien-2-ylcarbonyl)pyrazolo[1,5-a]pyrimidin-7-yl]phenyl}benzenesulfonamide] and O=C(c1cccs1)c1cnn2c(-c3cccc(NS(=O)(=O)c4cccs4)c3)ccnc12 [Example 38, N-{3-[3-(thien-2-ylcarbonyl)pyrazolo[1,5-a]pyrimidin-7-yl]phenyl}thiophene-2-sulfonamide] fall in the same range of pIC50: 5.00 to 6.00 for the first, 5.00 to 6.00 for the second.

First: O=C(Nc1cccc(-c2ccnc3c(C(=O)c4cccs4)cnn23)c1)OCCc1ccsc1 [Example 179, 2-thien-3-ylethyl 3-[3-(thien-2-ylcarbonyl)pyrazolo[1,5-a]pyrimidin-7-yl]phenylcarbamate]
Second: O=C(Cc1ccc2c(c1)OCO2)Nc1cccc(-c2ccnc3c(C(=O)c4cccs4)cnn23)c1 [Example 69, 2-(1,3-benzodioxol-5-yl)-N-{3-[3-(thien-2-ylcarbonyl)pyrazolo[1,5-a]pyrimidin-7-yl]phenyl}acetamide]
The pIC50 of the first is lower: 5.00 to 6.00 for the first, over 6.00 for the second. The second is the more potent here.

O=C(NC(=O)C(Cl)(Cl)Cl)Nc1cccc(-c2ccnc3c(C(=O)c4cccs4)cnn23)c1 [Example 9, N-{3-[3-(thien-2-ylcarbonyl)pyrazolo[1,5-a]pyrimidin-7-yl]phenyl}-N′-(trichloroacetyl)urea] and CC(C)S(=O)(=O)Nc1cccc(-c2ccnc3c(C(=O)c4cccs4)cnn23)c1 [Example 30, N-{3-[3-(thien-2-ylcarbonyl)pyrazolo[1,5-a]pyrimidin-7-yl]phenyl} propane-2-sulfonamide] fall in the same range of pIC50: 5.00 to 6.00 for the first, 5.00 to 6.00 for the second.

With CN1CCCN(C(=O)Nc2cccc(-c3ccnc4c(C(=O)c5cccs5)cnn34)c2)CC1 [Example 167, 4-methyl-N-{3-[3-(thien-2-ylcarbonyl)pyrazolo[1,5-a]pyrimidin-7-yl]phenyl}-1,4-diazepane-1-carboxamide] the pIC50 was 5.00 to 6.00.
